The text below walks through data of PMC12435777, “Assessing Acetyl-Coenzyme A Carboxylase Activity and Inhibition in Caenorhabtidis elegans Using a Partially Purified Protein Extract” (Analytical Chemistry, 2025).

By Ki is commonly meant the dissociation constant of the complex between target and ligand, obtained from inhibition or displacement.

The test concerns the target acetyl-CoA carboxylase (ACC, POD-2) (Caenorhabditis elegans, UniProt H2L0M0). The test can be described thus: real-time HPLC and NMR kinetics of malonyl-CoA formation with partially purified enzyme extract; Ki estimated from the change in KM. It is filed as biochemical.

Sequence of acetyl-CoA carboxylase (ACC, POD-2) (H2L0M0 entry or part of it): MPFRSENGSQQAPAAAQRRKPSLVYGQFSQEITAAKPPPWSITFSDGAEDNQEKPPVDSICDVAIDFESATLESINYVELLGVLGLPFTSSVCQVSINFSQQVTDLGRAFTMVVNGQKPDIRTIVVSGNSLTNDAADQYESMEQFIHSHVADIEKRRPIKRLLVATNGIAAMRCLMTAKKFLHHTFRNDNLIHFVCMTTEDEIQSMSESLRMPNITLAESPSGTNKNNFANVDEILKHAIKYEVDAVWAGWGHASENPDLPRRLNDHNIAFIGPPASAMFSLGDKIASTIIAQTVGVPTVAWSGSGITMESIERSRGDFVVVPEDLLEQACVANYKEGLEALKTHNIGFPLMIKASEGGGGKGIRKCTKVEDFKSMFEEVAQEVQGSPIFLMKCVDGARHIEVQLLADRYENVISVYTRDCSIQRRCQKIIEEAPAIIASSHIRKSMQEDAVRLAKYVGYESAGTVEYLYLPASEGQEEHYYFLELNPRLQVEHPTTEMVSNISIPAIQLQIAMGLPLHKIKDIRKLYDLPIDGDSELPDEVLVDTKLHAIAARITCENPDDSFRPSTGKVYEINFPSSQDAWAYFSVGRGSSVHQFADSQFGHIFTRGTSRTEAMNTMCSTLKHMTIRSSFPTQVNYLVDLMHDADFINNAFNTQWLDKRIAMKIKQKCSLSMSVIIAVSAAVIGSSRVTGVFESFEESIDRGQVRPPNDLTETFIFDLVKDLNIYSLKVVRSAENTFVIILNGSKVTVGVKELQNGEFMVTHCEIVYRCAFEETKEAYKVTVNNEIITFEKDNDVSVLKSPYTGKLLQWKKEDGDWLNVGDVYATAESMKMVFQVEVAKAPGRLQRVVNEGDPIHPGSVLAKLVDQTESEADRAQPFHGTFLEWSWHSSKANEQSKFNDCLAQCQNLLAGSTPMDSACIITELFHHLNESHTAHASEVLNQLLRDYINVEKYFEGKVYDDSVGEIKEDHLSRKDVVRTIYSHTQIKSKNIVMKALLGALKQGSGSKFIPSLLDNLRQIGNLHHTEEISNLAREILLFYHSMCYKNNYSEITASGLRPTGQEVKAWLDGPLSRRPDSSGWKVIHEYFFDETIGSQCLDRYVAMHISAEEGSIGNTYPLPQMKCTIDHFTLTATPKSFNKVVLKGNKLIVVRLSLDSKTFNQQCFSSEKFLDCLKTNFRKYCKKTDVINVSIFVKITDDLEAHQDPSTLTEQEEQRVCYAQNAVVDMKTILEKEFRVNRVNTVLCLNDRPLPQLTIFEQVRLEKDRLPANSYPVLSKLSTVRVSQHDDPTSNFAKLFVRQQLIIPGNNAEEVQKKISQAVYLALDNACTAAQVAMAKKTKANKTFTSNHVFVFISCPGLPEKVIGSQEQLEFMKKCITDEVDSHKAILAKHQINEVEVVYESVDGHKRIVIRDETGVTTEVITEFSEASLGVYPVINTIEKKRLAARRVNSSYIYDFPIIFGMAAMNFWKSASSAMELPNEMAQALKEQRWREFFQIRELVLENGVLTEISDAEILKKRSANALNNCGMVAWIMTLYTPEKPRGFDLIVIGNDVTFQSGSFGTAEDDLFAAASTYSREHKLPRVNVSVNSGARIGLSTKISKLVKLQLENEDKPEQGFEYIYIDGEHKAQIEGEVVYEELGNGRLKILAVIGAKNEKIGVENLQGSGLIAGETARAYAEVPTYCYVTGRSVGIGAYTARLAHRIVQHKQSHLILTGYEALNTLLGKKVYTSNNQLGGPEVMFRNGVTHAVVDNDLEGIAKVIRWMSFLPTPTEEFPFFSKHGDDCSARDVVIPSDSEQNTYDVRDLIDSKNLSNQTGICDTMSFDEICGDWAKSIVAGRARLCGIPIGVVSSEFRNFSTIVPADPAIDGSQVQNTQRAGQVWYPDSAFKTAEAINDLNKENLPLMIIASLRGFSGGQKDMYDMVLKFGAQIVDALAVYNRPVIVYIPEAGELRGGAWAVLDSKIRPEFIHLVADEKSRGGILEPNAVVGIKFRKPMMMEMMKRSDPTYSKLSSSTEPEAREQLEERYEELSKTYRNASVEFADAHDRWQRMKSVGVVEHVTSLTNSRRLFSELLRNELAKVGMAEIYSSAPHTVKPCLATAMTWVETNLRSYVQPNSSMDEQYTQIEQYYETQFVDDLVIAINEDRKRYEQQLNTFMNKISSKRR

Turning to `C=CCCCCCCCCCCC[C@@H](O)C[C@@H](O)COC(C)=O` [avocadene acetate], the inhibition constant Ki was about 12.5 µM.
